Laboratory results taken from patent publication US10548912B2, “Dosage regimen for a tiacumicin compound” (Astellas Pharma Europe Ltd., priority 2015, dated 2020).
Read-outs that look alike come from different tables or passages of the source.

Experiments:
[1] = tested on: Clostridium difficile infection; conditions: Louie 2011; 200 mg Fidaxomicin twice daily or vancomycin 125 mg four times daily orally for 10 days; cited from earlier work
[2] = tested on: Clostridium difficile infection; conditions: Cornely 2012; 200 mg Fidaxomicin twice daily or vancomycin 125 mg four times daily orally for 10 days; cited from earlier work
[3] = tested on: Clostridium difficile infection; experiment: Phase IIIb/IV randomized open-label EXTEND study (2819-MA-1002): extended fidaxomicin vs standard vancomycin; format: in vivo, human
Description: Fidaxomicin (FDX) is believed to reduce recurrence primarily through minimal collateral damage to colonic microflora. […] Subjects will receive 200 mg twice daily (b.i.d.) for 5 days from Day 1 to Day 5. From Day 6 to Day 25, subjects will receive 200 mg once daily on alternate days (first alternate day dose given on Day 7). This extension of the dose will allow a longer period for the protective microflora to recover and extend the period of time over which Clostridium difficile cells are suppressed, and kill any dormant spores that germinate. The extension of the dose also targets the early recurrence period documented in the phase 3 studies—the first 15 days after the end of therapy during which the majority of recurrences occurred. By covering this period this revised dosing regimen may reduce the recurrence to <10%, preferably to <5% and even more preferred to <3%. The impact on the gut microflora was limited supporting the rationale for this study.
The dosing of vancomycin (Vancocin™) to be administered in this study is in line with the SmPC for Vancocin. Subjects will receive 125 mg four times daily (q.i.d.) for 10 days from Day 1 to Day 10.
The dosage regimen was as described in Table 1 of Example 1.

[4] = tested on: Clostridium difficile toxin A and B; experiment: Single patient cases of Examples 6 and 7, indicator-guided switch to intermittent fidaxomicin; format: in vivo, human
Description: (§1) A patient being tested positively for Clostridium difficile toxin A and B (using a suitable assay known in the art) and having >5 UBM per day is treated with 200 mg Fidaxomicin twice a day in an initial course of treatment. The number of UBM is monitored daily to establish if the number of UBM will change positively to ≤3 UBM per day. At day 2 of the initial course of treatment the UBM is reduced to 2 UBM per day and at day 3 to 1 UBM per day. Since the UBM is below 4 UBM per day and even below 3 UBM per day for 2 consecutive days, the dosage regimen is switched to the intermittent course of treatment by administering to the patient 200 mg Fidaxomicin every other day starting from day 5 until Clostridium difficile toxin A and B are tested negative. The presence of Clostridium difficile toxin A and B is tested negative at day 12 after start of treatment (using a suitable assay known in the art).
as §1, with “day 9 and 10” for “day 2”, “to” for “to 2 UBM per day and at day”, “3” for “3 to 1”, “4” for “4 UBM per day and even below 3”, “day 12” for “day 5”, “day 27” for “day 12”

[5] = tested on: Clostridium difficile infections (CDI); conditions: cited from earlier work
[6] = oral administration; cited from earlier work
[7] = tested on: CDI; conditions: Phase III studies, mITT analysis; cited from earlier work
[8] = Day 55, extended fidaxomicin or standard vancomycin
[9] = Table 7, extended fidaxomicin regimen of Example 1 or standard vancomycin
[10] = extended fidaxomicin Day 55, standard vancomycin Day 40
[11] = FID-CH: 10-day fidaxomicin chaser after repeat CDI treatment, 8 courses, excluding RCDI due to antimicrobial exposure
[12] = FID-TX: 200 mg BID for 10 days, of 3 courses

## CCc1c(Cl)c(O)c(Cl)c(O)c1C(=O)O[C@H]1[C@H](O)[C@H](OC)[C@H](OC/C2=C\C=C\C[C@H](O)/C(C)=C/[C@H](CC)[C@@H](O[C@@H]3OC(C)(C)[C@@H](OC(=O)C(C)C)[C@H](O)[C@@H]3O)/C(C)=C/C(C)=C/C[C@@H]([C@@H](C)O)OC2=O)O[C@@H]1C [fidaxomicin, 3-[[[6-deoxy-4-O-(3,5-dichloro-2-ethyl-4,6-dihydroxybenzoyl)-2-O-methyl-β-D-mannopyranosyl]oxy]methyl]-12(R)-[[6-deoxy-5-C-methyl-4-O-(2-methyl-1-oxopropyl)-β-D-lyxo-hexopyranosyl]oxy]-11 (S)-ethyl-8(S)-hydroxy-18(S)-(1(R)-hydroxyethyl)-9,13,15-trimethyloxacyclooctadeca-3,5,9,13,15-pentaene-2-one]
[1]
  Recurrence 30 days after end of treatment (%): 15.4%
  Recurrence 30 days after end of treatment (patients/N): 39/253
  Sustained clinical cure 30 days after end of treatment (%): 74.6%
  Sustained clinical cure 30 days after end of treatment (patients/N): 214/287
[2]
  Recurrence 30 days after end of treatment (%): 12.7%
  Recurrence 30 days after end of treatment (patients/N): 28/221
  Sustained clinical cure 30 days after end of treatment (%): 76.6%
  Sustained clinical cure 30 days after end of treatment (patients/N): 193/252
[3]; 30 days after end of treatment
  Treatment Difference in sustained clinical cure rate (Extended Fidaxomicin − Standard Vancomycin): 23.8%
[3]; 30 days after end of treatment, extended fidaxomicin
  OR (Odds Ratio) vs. Vancomycin, sustained clinical cure: 3.36
[3]; Day 1
  % of patients with <3 Unformed bowel movements per day (UBM): 23%
  % of patients with ≥3 Unformed bowel movements per day (UBM): 77.0%
[3]; Day 2
  % of patients with <3 Unformed bowel movements per day (UBM): 33.8%
  % of patients with ≥3 Unformed bowel movements per day (UBM): 66.2%
[3]; Day 3
  % of patients with <3 Unformed bowel movements per day (UBM): 59%
  % of patients with ≥3 Unformed bowel movements per day (UBM): 41%
[3]; Day 4
  % of patients with <3 Unformed bowel movements per day (UBM): 66.9%
  % of patients with ≥3 Unformed bowel movements per day (UBM): 33.1%
[3]; Day 5
  % of patients with <3 Unformed bowel movements per day (UBM): 73.9%
  % of patients with ≥3 Unformed bowel movements per day (UBM): 26.1%
[3]; Day 6
  % of patients with <3 Unformed bowel movements per day (UBM): 73.9%
  % of patients with ≥3 Unformed bowel movements per day (UBM): 26.1%
[3]; Day 7
  % of patients with <3 Unformed bowel movements per day (UBM): 84.8%
  % of patients with ≥3 Unformed bowel movements per day (UBM): 15.2%
[3]; Day 8
  % of patients with <3 Unformed bowel movements per day (UBM): 89.1%
  % of patients with ≥3 Unformed bowel movements per day (UBM): 10.9%
[3]; Day 9
  % of patients with <3 Unformed bowel movements per day (UBM): 91.3%
  % of patients with ≥3 Unformed bowel movements per day (UBM): 8.7%
[3]; Day 10
  % of patients with <3 Unformed bowel movements per day (UBM): 92.6%
  % of patients with ≥3 Unformed bowel movements per day (UBM): 7.4%
[3]; Day 11
  % of patients with <3 Unformed bowel movements per day (UBM): 93.3%
  % of patients with ≥3 Unformed bowel movements per day (UBM): 6.7%
[3]; Day 12
  % of patients with <3 Unformed bowel movements per day (UBM): 94.8%
  % of patients with ≥3 Unformed bowel movements per day (UBM): 5.2%
[3]; Day 13
  % of patients with <3 Unformed bowel movements per day (UBM): 93.3%
  % of patients with ≥3 Unformed bowel movements per day (UBM): 6.7%
[3]; Day 14
  % of patients with <3 Unformed bowel movements per day (UBM): 95.6%
  % of patients with ≥3 Unformed bowel movements per day (UBM): 4.4%
[3]; Day 15
  % of patients with <3 Unformed bowel movements per day (UBM): 94.8%
  % of patients with ≥3 Unformed bowel movements per day (UBM): 5.2%
[3]; Day 16
  % of patients with <3 Unformed bowel movements per day (UBM): 95.5%
  % of patients with ≥3 Unformed bowel movements per day (UBM): 4.5%
[3]; Day 17
  % of patients with <3 Unformed bowel movements per day (UBM): 95.5%
  % of patients with ≥3 Unformed bowel movements per day (UBM): 4.5%
[3]; Day 18
  % of patients with <3 Unformed bowel movements per day (UBM): 94.0%
  % of patients with ≥3 Unformed bowel movements per day (UBM): 6.0%
[3]; Day 19
  % of patients with <3 Unformed bowel movements per day (UBM): 95.5%
  % of patients with ≥3 Unformed bowel movements per day (UBM): 4.5%
[3]; Day 20
  % of patients with <3 Unformed bowel movements per day (UBM): 97.8%
  % of patients with ≥3 Unformed bowel movements per day (UBM): 2.2%
[3]; Day 21
  % of patients with <3 Unformed bowel movements per day (UBM): 95.5%
  % of patients with ≥3 Unformed bowel movements per day (UBM): 4.5%
[3]; Day 22
  % of patients with <3 Unformed bowel movements per day (UBM): 96.3%
  % of patients with ≥3 Unformed bowel movements per day (UBM): 3.7%
[3]; Day 23
  % of patients with <3 Unformed bowel movements per day (UBM): 95.5%
  % of patients with ≥3 Unformed bowel movements per day (UBM): 4.5%
[3]; Day 24
  % of patients with <3 Unformed bowel movements per day (UBM): 96.2%
  % of patients with ≥3 Unformed bowel movements per day (UBM): 3.8%
[3]; Day 25
  % of patients with <3 Unformed bowel movements per day (UBM): 96.2%
  % of patients with ≥3 Unformed bowel movements per day (UBM): 3.8%
[3]; Day 26
  % of patients with <3 Unformed bowel movements per day (UBM): 97.3%
  % of patients with ≥3 Unformed bowel movements per day (UBM): 2.7%
[3]; Day 27
  % of patients with <3 Unformed bowel movements per day (UBM): 98.5%
  % of patients with ≥3 Unformed bowel movements per day (UBM): 1.5%
[3]; Day 55
  Treatment Difference in recurrence rate (Extended fidaxomicin − Standard vancomycin): −12.6%
[3]; Day 55, extended fidaxomicin
  OR (Odds Ratio) vs. Vancomycin, recurrence of CDI: 0.21
[3]; [8]
  Recurrence of CDI (%) at visit 5 (Day 55): (3.5) %
  Recurrence of CDI at visit 5 (Day 55) (patients/N): 5/142
[3]; Day 55, extended fidaxomicin or standard vancomycin, listed as FDX
  Recurrence of CDI (%) at visit 5 (Day 55): 3.5%
[3]; [9]
  Recurrence 30 days after end of treatment (%): 3.5%
  Recurrence 30 days after end of treatment (patients/N): 5/142
[3]; [10]
  Sustained clinical cure (%) at 30 days after end of treatment: (86.7) %
  Sustained clinical cure at 30 days after end of treatment (patients/N): 124/143
[3]; extended fidaxomicin Day 55, standard vancomycin Day 40, listed as FDX
  Sustained clinical cure (%) at 30 days after end of treatment: 86.7%
[4]; Example 6 patient, day 2 of initial course 200 mg twice a day, >5 UBM per day before
  UBM per day: 2 UBM per day
[4]; Example 6 patient, day 3 of initial course 200 mg twice a day
  UBM per day: 1 UBM per day
[4]; Example 6 patient, day 12 after start of treatment, 200 mg every other day from day 5
  Presence of Clostridium difficile toxin A and B: negative
[4]; Example 7 patient, day 9 and 10 of initial course 200 mg twice a day, >5 UBM per day before
  UBM per day: 3 UBM per day
[4]; Example 7 patient, day 27 after start of treatment, 200 mg every other day from day 12
  Presence of Clostridium difficile toxin A and B: negative
[5]; 18 courses of fidaxomicin in 14 patients with RCDI
  Courses resulting in treatment success: 18
[5]; [11]
  RCDI: 2
  RCDI (%): 25%
[5]; FID-TP: taper 200 mg daily 7 days then 200 mg QOD 7-26 days, 7 courses
  RCDI: no RCDI
[5]; [12]
  RCDI episodes: 2
  RCDI episodes (%): 66%
[5]; following FID-CH
  Average symptom-free interval (SFI): 240 days
[5]; following FID-TP
  Average symptom-free interval (SFI): 150 days
[5]; following FID-TX
  Average symptom-free interval (SFI): 73 days
[6]
  Absorption from the intestinal tract: poorly absorbed
[7]
  Recurrence of CDI: 14.1%
